biological target: c-Mer (Homo sapiens (Human), UniProt Q12866); assay: TAM Enzymatic Assay (HTRF), c-Mer; type: biochemical; settings: 0.0625 nM c-Mer, ATP-containing substrate solution, 60 min
Sequence (Q12866 21-999): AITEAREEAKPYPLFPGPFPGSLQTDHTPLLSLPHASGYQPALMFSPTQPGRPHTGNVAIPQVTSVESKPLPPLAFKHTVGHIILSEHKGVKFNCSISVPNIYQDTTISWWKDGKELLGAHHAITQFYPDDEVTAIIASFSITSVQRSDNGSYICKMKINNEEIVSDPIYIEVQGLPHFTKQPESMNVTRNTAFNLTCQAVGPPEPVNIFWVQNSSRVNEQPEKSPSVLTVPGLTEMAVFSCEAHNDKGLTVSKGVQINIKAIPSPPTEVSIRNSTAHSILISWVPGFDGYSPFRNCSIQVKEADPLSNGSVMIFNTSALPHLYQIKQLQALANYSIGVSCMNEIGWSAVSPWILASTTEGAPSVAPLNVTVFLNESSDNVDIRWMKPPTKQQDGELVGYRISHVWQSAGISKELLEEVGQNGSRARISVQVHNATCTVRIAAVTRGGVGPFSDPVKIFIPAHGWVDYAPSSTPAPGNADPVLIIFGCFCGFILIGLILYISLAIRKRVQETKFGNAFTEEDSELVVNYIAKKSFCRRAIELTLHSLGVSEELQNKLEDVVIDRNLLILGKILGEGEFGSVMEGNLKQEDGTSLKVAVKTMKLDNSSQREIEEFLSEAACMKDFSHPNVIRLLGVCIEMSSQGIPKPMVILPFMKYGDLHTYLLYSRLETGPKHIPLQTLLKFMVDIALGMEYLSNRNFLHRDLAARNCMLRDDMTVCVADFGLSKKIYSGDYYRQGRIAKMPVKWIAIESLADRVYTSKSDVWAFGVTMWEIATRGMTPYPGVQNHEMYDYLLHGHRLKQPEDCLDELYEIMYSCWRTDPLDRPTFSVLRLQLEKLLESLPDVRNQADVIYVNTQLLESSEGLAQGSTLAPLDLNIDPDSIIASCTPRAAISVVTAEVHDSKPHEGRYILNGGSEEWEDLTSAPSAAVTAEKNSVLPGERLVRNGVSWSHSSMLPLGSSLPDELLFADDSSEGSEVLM

| IC50 [nM] | Compound |
| --- | --- |
| ≤ 100 | CCCCNc1ncc2c(-c3ccc(CN4CCOCC4)cc3)nc([C@H]3CC[C@H](O)CC3)n2n1 [2 (1st peak, trans-), trans-4-{2-(Butylamino)-5-[4-(morpholin-4-ylmethyl)phenyl]imidazo[5,1-f][1,2,4]triazin-7-yl}cyclohexanol] |
| ≤ 100 | CCCCNc1ncc2c(-c3ccc(CO)cc3)nc([C@H]3CC[C@H](O)CC3)n2n1 [3 (1st peak, trans-), trans-4-{2-(Butylamino)-5-[4-(hydroxymethyl)phenyl]imidazo[5,1-f][1,2,4]triazin-7-yl}cyclohexanol] |
| > 1000 | CCCCNc1ncc2c(-c3ccc(CO)cc3)nc([C@H]3CC[C@@H](O)CC3)n2n1 [3 (2nd peak, cis-), cis-4-{2-(Butylamino)-5-[4-(hydroxymethyl)phenyl]imidazo[5,1-f][1,2,4]triazin-7-yl}cyclohexanol] |
| ≤ 100 | CCCCNc1ncc2c(-c3ccc(CN4CCN(C)CC4)cc3)nc([C@H]3CC[C@@H](O)CC3)n2n1 [1 (2nd peak, cis-), cis-4-(2-(Butylamino)-5-{4-[(4-methylpiperazin-1-yl)methyl]phenyl}imidazo[5,1-f][1,2,4]triazin-7-yl)cyclohexanol] |
| ≤ 100 | CCCCNc1ncc2c(-c3cccc(CO)c3)nc(C3CCC(O)CC3)n2n1 (single isomer, unassigned) [8 (1st peak), 4-{2-(Butylamino)-5-[3-(hydroxymethyl)phenyl]imidazo[5,1-f][1,2,4]triazin-7-yl}cyclohexanol] |

biological target: Tyro3 (Homo sapiens (Human), UniProt Q06418); assay: TAM Enzymatic Assay (HTRF), Tyro3; type: biochemical; settings: 0.366 nM Tyro3, 60 min
Sequence (Q06418 41-890): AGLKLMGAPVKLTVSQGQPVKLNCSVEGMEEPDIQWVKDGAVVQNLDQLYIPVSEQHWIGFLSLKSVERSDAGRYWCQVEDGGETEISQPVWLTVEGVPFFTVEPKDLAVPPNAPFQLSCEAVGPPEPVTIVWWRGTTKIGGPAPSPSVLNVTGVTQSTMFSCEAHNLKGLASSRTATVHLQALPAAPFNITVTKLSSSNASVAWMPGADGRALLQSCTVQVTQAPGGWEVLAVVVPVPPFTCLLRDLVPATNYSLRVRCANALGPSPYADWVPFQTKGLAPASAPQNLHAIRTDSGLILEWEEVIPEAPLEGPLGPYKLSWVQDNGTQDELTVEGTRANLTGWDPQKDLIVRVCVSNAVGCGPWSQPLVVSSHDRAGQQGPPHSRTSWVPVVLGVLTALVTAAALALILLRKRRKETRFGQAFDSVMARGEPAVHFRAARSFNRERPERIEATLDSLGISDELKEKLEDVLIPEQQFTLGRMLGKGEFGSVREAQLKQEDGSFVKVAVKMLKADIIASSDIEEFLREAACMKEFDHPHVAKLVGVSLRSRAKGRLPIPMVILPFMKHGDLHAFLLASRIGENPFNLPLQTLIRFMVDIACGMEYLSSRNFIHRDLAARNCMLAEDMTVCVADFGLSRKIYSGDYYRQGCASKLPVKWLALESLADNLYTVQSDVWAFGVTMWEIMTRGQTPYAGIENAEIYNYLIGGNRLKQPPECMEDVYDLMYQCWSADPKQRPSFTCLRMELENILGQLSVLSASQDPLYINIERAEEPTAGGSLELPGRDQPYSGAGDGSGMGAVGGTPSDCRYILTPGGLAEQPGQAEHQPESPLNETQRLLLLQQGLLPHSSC
Description: The kinase assay buffer contained 50 mM HEPES, pH7.5, 10 mM MgCl2, 1 mM EGTA, 0.01% NP-40 and 2 mM DTT. 0.1 ul test compounds dissolved in DMSO were transferred from compound plates to white 384-well assay plates (Greiner [sequence] plates). […] 4 ul enzyme solution (or assay buffer for the enzyme blank) was added to the appropriate wells in each plate, and then 4 ul/well substrate solution was added to initiate the reaction. The plate was protected from light and incubated at room temperature for 60 min. […] The plate was incubated for 1 h at room temperature, and HTRF (homogenous time resolved fluorescence) signal was measured on a PHERAstar FS plate reader (BMG labtech). Percentage of inhibition was calculated for each concentration and IC50 value was generated from curve fitting with GraphPad Prism software.

| IC50 [nM] | Compound |
| --- | --- |
| 100 to 500 | CCCCNc1ncc2c(-c3ccc(CN4CCOCC4)cc3)nc([C@H]3CC[C@H](O)CC3)n2n1 [2 (1st peak, trans-), trans-4-{2-(Butylamino)-5-[4-(morpholin-4-ylmethyl)phenyl]imidazo[5,1-f][1,2,4]triazin-7-yl}cyclohexanol] |
| 100 to 500 | CCCCNc1ncc2c(-c3ccc(CN4CCN(C)CC4)cc3)nc([C@H]3CC[C@@H](O)CC3)n2n1 [1 (2nd peak, cis-), cis-4-(2-(Butylamino)-5-{4-[(4-methylpiperazin-1-yl)methyl]phenyl}imidazo[5,1-f][1,2,4]triazin-7-yl)cyclohexanol] |

biological target: JAK1 (Homo sapiens (Human), UniProt P23458); assay: not given; settings: 1 mM ATP; cited from earlier work
Sequence (P23458 whole entry, species assumed): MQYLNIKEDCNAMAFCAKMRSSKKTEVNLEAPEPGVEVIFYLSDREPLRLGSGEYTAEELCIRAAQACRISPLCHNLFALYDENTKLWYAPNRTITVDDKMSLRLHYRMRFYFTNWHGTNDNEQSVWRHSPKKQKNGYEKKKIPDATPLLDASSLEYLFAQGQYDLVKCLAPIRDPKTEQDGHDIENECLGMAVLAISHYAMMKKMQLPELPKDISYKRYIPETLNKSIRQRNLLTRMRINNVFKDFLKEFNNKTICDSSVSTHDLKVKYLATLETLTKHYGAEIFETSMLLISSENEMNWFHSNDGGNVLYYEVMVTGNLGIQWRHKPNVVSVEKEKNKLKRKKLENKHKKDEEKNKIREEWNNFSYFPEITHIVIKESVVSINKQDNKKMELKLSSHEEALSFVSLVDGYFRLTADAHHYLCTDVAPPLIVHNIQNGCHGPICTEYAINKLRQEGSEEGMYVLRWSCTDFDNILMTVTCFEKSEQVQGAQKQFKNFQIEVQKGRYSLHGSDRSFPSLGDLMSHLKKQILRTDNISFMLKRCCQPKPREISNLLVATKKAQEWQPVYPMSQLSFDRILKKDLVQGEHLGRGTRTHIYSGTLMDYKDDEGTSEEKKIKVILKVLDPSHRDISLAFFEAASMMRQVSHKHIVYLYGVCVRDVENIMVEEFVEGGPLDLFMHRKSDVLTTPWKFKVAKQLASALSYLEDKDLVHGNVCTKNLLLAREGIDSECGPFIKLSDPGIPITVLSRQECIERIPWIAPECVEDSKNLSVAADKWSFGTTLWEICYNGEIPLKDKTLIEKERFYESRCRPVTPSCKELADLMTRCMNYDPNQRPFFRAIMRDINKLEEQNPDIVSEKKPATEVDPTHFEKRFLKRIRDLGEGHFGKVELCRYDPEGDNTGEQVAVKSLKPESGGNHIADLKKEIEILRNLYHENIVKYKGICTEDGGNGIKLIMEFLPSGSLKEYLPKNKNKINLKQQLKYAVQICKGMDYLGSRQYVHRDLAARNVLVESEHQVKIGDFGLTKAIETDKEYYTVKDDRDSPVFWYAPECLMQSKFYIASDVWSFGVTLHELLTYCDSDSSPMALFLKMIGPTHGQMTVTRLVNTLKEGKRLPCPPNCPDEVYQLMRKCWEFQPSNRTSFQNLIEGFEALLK

| Compound | IC50 [nM] |
| --- | --- |
| trans-7-((4-Aminocyclohexyl)methyl)-5-(4-fluorophenyl)-N-(3-phenylpropyl)imidazo [5,1-f][1,2,4]triazin-2-amine [Example 14] | < 10 |

same assay, conditions: selectivity ratio, IC50 at 1 mM ATP; cited from earlier work

| Compound | JAK2/JAK1 |
| --- | --- |
| CC(C)(O)c1cc(O[C@H]2CC[C@@H](N3CC(CC#N)(n4cc(-c5ncnc6[nH]ccc56)cn4)C3)CC2)nc(C(F)(F)F)c1 [Compound 20, {1-(cis-4-{[4-(1-hydroxy-1-methylethyl)-6-(trifluoromethyl)pyridin-2-yl]oxy}cyclohexyl)-3-[4-(7H-pyrrolo [2,3-d]pyrimidin-4-yl)-1H-pyrazol-1-yl]azetidin-3-yl}acetonitrile] | >10 |
| CCNCc1cc(O[C@H]2CC[C@@H](N3CC(CC#N)(n4cc(-c5ncnc6[nH]ccc56)cn4)C3)CC2)nc(C(F)(F)F)c1 [Compound 19, {1-(cis-4-{[4-[(ethylamino)methyl]-6-(trifluoromethyl)pyridin-2-yl]oxy}cyclohexyl)-3-[4-(7H-pyrrolo [2,3-d]pyrimidin-4-yl)-1H-pyrazol-1-yl]azetidin-3-yl}acetonitrile] | >10 |
| CCCCNc1ncc2c(-c3ccc(F)cc3)nc(C[C@H]3CC[C@H](N)CC3)n2n1 [Example 13, trans-7-[(4-Aminocyclohexyl)methyl]-N-butyl-5-(4-fluorophenyl)imidazo[5,1-f][1,2,4]triazin-2-amine] | >10 |
| N#CC[C@]1(n2cc(-c3ncnc4[nH]ccc34)cn2)C[C@H](N2CCC(Oc3cc(CCO)cc(C(F)(F)F)n3)CC2)C1 [Compound 26, {trans-3-(4-{[4-(2-hydroxyethyl)-6-(trifluoromethyl)pyridin-2-yl]oxy}piperidin-1-yl)-1-[4-(7H-pyrrolo[2,3-d]pyrimidin-4-yl)-1H-pyrazol-1-yl]cyclobutyl} acetonitrile] | >10 |
| N#CCC1(n2cc(-c3ncnc4[nH]ccc34)cn2)CN([C@H]2CC[C@@H](Oc3cc(CCO)nc(C(F)(F)F)n3)CC2)C1 [Compound 18, {1-(cis-4-{[6-(2-hydroxyethyl)-2-(trifluoromethyl)pyrimidin-4-yl]oxy}cyclohexyl)-3-[4-(7H-pyrrolo [2,3-d]pyrimidin-4-yl)-1H-pyrazol-1-yl]azetidin-3-yl}acetonitrile] | >10 |
| C[C@H](NC(=O)c1cc(F)c(N2CC(CC#N)(n3cc(-c4ncnc5[nH]ccc45)cn3)C2)cc1F)C(F)(F)F [Compound 16, 4-{3-(cyanomethyl)-3-[4-(7H-pyrrolo [2,3-d]pyrimidin-4-yl)-1H-pyrazol-1-yl]azetidin-1-yl}-2,5-difluoro-N-[(1S)-2,2,2-trifluoro-1-methylethyl] benzamide] | >10 |
| N#CCC1(n2cc(-c3ncnc4[nH]ccc34)cn2)CN(C2CCN(C(=O)c3ccnc(C(F)(F)F)c3F)CC2)C1 [Compound 7, {1-{1-[3-Fluoro-2-(trifluoromethyl)isonicotinoyl]piperidin-4-yl}-3-[4-(7H-pyrrolo[2,3-d]pyrimidin-4-yl)-1H-pyrazol-1-yl]azetidin-3-yl}acetonitrile] | >10 |
| N#CCC(CN1CCN(C(=O)c2ccc(C#N)cc2F)CC1)n1ccc(-c2ncnc3[nH]ccc23)c1 (centres unmarked) [Compound 6, 4-[(4-{3-cyano-2-[3-(7H-pyrrolo[2,3-d]pyrimidin-4-yl)-1H-pyrrol-1-yl]propyl}piperazin-1-yl)carbonyl]-3-fluorobenzonitrile] | >10 |
| N#CCC(C1CCN(c2nc3cccnc3o2)C1)n1cc(-c2ncnc3[nH]ccc23)cn1 (centres unmarked) [Compound 4, 3-(1-[1,3]oxazolo[5,4-b]pyridin-2-ylpyrrolidin-3-yl)-3-[4-(7H-pyrrolo[2,3-d]pyrimidin-4-yl)-1H-pyrazol-1-yl]propanenitrile] | >10 |
| N#CCC(C1CCN(c2cccc(Cl)n2)C1)n1cc(-c2ncnc3[nH]ccc23)cn1 (centres unmarked) [Compound 3, 3-[1-(6-chloropyridin-2-yl)pyrrolidin-3-yl]-3-[4-(7H-pyrrolo[2,3-d]pyrimidin-4-yl)-1H-pyrazol-1-yl]propanenitrile] | >10 |
| N#CC[C@]1(n2cc(-c3ncnc4[nH]ccc34)cn2)C[C@H](N2CCN(C(=O)c3ccnc(C(F)(F)F)n3)CC2)C1 [Compound 10, [trans-1-[4-(7H-pyrrolo[2,3-d]pyrimidin-4-yl)-1H-pyrazol-1-yl]-3-(4-{[2-(trifluoromethyl)pyrimidin-4-yl]carbonyl}piperazin-1-yl)cyclobutyl] acetonitrile] | >10 |
| N#CCC1(n2cc(-c3ncnc4[nH]ccc34)cn2)CN(C2CCN(C(=O)Nc3ccc(F)cc3C(F)(F)F)CC2)C1 [Compound 8, 4-{3-(Cyanomethyl)-3-[4-(7H-pyrrolo[2,3-d]pyrimidin-4-yl)-1H-pyrazol-1-yl]azetidin-1-yl}-N-[4-fluoro-2-(trifluoromethyl)phenyl]piperidine-1-carboxamide] | >10 |
| N#CCC1(n2cc(-c3ncnc4[nH]ccc34)cn2)CN(C2CCN(C(=O)c3ccnc(C(F)(F)F)n3)CC2)C1 [Compound 9, [3-[4-(7H-pyrrolo[2,3-d]pyrimidin-4-yl)-1H-pyrazol-1-yl]-1-(1-{[2-(trifluoromethyl)pyrimidin-4-yl]carbonyl}piperidin-4-yl)azetidin-3-yl]acetonitrile] | >10 |
| C[C@@H](O)CNCc1cc(OC2CCN([C@H]3C[C@](CC#N)(n4cc(-c5ncnc6[nH]ccc56)cn4)C3)CC2)nc(C(F)(F)F)c1 [Compound 24, {trans-3-(4-{[4-({[(2R)-2-hydroxypropyl]amino}methyl)-6-(trifluoromethyl)pyridin-2-yl]oxy}piperidin-1-yl)-1-[4-(7H-pyrrolo[2,3-d]pyrimidin-4-yl)-1H-pyrazol-1-yl]cyclobutyl} acetonitrile] | >10 |
| C[C@H](O)CNCc1cc(OC2CCN([C@H]3C[C@](CC#N)(n4cc(-c5ncnc6[nH]ccc56)cn4)C3)CC2)nc(C(F)(F)F)c1 [Compound 25, {trans-3-(4-{[4-({[(2S)-2-hydroxypropyl]amino}methyl)-6-(trifluoromethyl)pyridin-2-yl]oxy}piperidin-1-yl)-1-[4-(7H-pyrrolo[2,3-d]pyrimidin-4-yl)-1H-pyrazol-1-yl]cyclobutyl} acetonitrile] | >10 |
| C[C@@H](CO)NCc1cc(OC2CCN([C@H]3C[C@](CC#N)(n4cc(-c5ncnc6[nH]ccc56)cn4)C3)CC2)nc(C(F)(F)F)c1 [Compound 23, {trans-3-(4-{[4-({[(1S)-2-hydroxy-1-methylethyl]amino}methyl)-6-(trifluoromethyl)pyridin-2-yl]oxy}piperidin-1-yl)-1-[4-(7H-pyrrolo[2,3-d]pyrimidin-4-yl)-1H-pyrazol-1-yl]cyclobutyl} acetonitrile] | >10 |
| N#CCC(CN1CCN(C(=O)c2ccc(C#N)cc2F)CC1)n1cc(-c2ncnc3[nH]ccc23)cn1 (centres unmarked) [Compound 5, 4-[(4-{3-cyano-2-[4-(7H-pyrrolo[2,3-d]pyrimidin-4-yl)-1H-pyrazol-1-yl]propyl}piperazin-1-yl)carbonyl]-3-fluorobenzonitrile] | >10 |
| N[C@H]1CC[C@H](Cc2nc(-c3ccc(F)cc3)c3cnc(NCCCc4ccccc4)nn23)CC1 [Example 14, trans-7-((4-Aminocyclohexyl)methyl)-5-(4-fluorophenyl)-N-(3-phenylpropyl)imidazo [5,1-f][1,2,4]triazin-2-amine] | >10 |
| C[C@@H](O)c1nc2cnc3ccsc3c2n1[C@H]1CC[C@H](CC#N)OC1 [Compound 1, ((2R,5S)-5-{2-[(1R)-1-hydroxyethyl]-1H-imidazo[4,5-d]thieno[3,2-b]pyridin-1-yl}tetrahydro-2H-pyran-2-yl)acetonitrile] | >10 |

biological target: PI3Kδ (Homo sapiens (Human), UniProt O00329); assay: not given; settings: cited from earlier work
Sequence (O00329 whole entry, species assumed): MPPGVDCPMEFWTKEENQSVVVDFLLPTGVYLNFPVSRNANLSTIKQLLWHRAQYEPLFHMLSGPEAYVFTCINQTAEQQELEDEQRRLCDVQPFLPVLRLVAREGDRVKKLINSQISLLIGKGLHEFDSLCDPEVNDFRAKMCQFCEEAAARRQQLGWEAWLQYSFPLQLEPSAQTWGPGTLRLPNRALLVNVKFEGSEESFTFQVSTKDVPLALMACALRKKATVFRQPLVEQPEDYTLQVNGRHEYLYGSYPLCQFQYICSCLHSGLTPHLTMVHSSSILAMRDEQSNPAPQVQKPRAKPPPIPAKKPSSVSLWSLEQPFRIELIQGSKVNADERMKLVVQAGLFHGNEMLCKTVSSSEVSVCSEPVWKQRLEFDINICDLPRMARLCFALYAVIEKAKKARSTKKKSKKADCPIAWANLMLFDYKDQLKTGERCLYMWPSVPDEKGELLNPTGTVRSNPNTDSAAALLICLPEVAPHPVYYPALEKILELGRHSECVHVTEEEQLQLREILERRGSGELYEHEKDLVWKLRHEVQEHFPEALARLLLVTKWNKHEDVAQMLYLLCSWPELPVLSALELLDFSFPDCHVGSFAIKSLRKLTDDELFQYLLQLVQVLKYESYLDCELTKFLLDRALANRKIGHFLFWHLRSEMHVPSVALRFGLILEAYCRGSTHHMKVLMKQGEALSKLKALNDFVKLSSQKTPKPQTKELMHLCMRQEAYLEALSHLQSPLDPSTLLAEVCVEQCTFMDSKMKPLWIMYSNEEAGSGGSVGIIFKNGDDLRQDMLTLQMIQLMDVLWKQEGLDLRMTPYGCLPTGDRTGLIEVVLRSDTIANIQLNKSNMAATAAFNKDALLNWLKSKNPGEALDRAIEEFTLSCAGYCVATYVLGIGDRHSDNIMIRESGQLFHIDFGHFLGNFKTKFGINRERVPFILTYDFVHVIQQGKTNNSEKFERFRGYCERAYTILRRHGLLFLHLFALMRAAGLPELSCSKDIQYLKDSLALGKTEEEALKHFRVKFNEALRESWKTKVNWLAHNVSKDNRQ
Sequence (P27986 whole entry partner, species assumed): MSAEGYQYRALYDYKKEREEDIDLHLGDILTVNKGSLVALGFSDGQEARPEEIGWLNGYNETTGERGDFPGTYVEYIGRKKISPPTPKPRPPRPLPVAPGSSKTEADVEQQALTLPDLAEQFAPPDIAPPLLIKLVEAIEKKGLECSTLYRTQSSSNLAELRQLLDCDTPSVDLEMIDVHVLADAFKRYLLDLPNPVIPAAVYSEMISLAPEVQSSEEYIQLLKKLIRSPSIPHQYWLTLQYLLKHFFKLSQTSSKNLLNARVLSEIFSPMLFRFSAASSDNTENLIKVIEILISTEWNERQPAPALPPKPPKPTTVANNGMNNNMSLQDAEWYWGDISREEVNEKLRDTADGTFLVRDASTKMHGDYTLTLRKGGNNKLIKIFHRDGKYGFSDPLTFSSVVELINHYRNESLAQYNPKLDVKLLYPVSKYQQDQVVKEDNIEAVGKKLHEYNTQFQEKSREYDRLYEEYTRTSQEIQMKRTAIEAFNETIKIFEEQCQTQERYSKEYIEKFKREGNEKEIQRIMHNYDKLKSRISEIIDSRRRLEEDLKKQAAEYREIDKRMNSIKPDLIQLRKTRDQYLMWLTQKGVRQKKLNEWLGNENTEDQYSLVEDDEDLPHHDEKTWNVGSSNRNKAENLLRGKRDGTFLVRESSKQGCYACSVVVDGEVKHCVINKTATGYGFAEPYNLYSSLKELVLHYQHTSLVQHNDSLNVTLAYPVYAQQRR

| Compound | IC50 [nM] |
| --- | --- |
| CCOc1c(C(C)n2nc(C)c3c(N)ncnc32)cc(Cl)c(F)c1C1CNC(=O)C1 (single isomer, unassigned) [Compound 32c, 4-{3-[1-(4-amino-3-methyl-1H-pyrazolo[3,4-d]pyrimidin-1-yl)ethyl]-5-chloro-2-ethoxy-6-fluorophenyl}pyrrolidin-2-one] | < 50 |
| COc1c(C(C)n2nc(C)c3c(N)ncnc32)cc(Cl)c(C#N)c1C1CN(C[C@H](C)O)C1 (stereo partly drawn) [Compound 29, 4-[1-(4-amino-3-methyl-1H-pyrazolo[3,4-d]pyrimidin-1-yl)ethyl]-6-chloro-2-{1-[(2S)-2-hydroxypropyl]azetidin-3-yl}-3-methoxybenzonitrile] | < 50 |
